Data: patent publication US20230322846A9, “NEUROACTIVE STEROIDS AND THEIR METHODS OF USE” (SAGE THERAPEUTICS, INC., priority 2018, published 2023)

Tests used:
[1] = target: [35S]-TBPS binding, rat brain cortical membranes; assay: Steroid inhibition of [35S]-TBPS binding; conditions: 3 nM [35S]-TBPS, in the presence of 5 mM GABA
Summary of the method: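 In the presence of […], compounds (DMSO 0.5% final) competed with 3 nM [35S]-TBPS for Sprague-Dawley rat cortical membranes, pH 7.4 phosphate buffer, 90 min, room temperature. Filtration and scintillation counting; specific binding defined by […]; IC50 and maximal inhibition fitted per experiment, averaged as mean ± SEM.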

[2] = target: human GABAA receptors composed of the α1β2γ2 subunits (Homo sapiens (Human), UniProt P14867+P18507+P47870); assay: α1β2γ2 SyncroPatch automated patch clamp assay; type: cell-based; conditions: for EC50: HEK cells, potentiation of submaximal GABA current, clamped at −120 mV; for α1β2γ2 EMAX: peak current after GABA+compound divided by peak current after GABA alone
Chain of human GABAA receptors composed of the α1β2γ2 subunits (P14867 28-456 limits assumed): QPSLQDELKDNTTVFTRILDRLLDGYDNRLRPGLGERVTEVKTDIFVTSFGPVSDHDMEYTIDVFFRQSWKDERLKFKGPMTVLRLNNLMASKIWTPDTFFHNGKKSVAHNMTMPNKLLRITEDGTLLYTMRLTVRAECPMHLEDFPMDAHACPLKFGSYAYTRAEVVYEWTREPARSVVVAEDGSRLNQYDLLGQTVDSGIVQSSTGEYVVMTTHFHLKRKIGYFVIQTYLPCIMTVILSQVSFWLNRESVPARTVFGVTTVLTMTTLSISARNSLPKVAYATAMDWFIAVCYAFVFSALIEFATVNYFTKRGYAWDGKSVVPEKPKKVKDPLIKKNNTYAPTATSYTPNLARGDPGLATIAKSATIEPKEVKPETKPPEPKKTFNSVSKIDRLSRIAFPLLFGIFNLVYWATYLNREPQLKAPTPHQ
Chain of human GABAA receptors composed of the α1β2γ2 subunits (P47870 25-512 limits assumed): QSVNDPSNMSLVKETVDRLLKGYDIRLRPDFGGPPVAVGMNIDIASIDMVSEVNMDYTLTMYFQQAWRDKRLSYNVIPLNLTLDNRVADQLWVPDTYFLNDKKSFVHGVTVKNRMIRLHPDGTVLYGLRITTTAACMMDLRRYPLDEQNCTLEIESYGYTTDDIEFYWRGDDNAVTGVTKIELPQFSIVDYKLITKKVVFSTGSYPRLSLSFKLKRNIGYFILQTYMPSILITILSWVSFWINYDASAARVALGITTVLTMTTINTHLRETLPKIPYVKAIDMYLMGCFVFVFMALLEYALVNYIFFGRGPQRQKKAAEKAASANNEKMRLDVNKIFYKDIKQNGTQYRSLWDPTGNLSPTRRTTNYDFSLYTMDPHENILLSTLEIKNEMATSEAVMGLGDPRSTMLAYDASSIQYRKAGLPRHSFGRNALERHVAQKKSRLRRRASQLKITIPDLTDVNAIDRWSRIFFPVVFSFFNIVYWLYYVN
Chain of human GABAA receptors composed of the α1β2γ2 subunits (P18507 40-475 limits assumed): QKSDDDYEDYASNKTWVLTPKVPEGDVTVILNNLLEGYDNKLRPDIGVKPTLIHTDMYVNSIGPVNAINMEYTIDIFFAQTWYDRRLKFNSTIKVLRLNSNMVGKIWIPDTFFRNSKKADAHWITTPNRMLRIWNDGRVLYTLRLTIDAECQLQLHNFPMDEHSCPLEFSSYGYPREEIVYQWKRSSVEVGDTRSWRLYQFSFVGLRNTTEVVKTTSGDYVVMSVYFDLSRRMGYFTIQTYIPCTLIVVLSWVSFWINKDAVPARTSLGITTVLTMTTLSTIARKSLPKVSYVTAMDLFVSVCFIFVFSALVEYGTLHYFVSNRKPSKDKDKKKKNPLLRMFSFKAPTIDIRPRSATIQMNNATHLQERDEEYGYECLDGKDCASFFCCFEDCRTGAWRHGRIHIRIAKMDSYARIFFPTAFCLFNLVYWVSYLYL
Summary of the method: (§1)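 Whole-cell recordings in HEK cells stably expressing each receptor, held at −120 mV, pH 7.4 extracellular/pH 7.2 KF-based intracellular solution. Submaximal GABA (3-5 μM or 10 μM) applied, then GABA plus compound at 0.029-30 μM (six concentrations, n=8-12 cells). Effect = peak current ratio GABA+compound/GABA alone; EC50 and Emax from concentration means.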

[3] = target: human GABAA receptors composed of the α4β3δ subunits (Homo sapiens (Human), UniProt O14764+P28472+P48169); assay: α4β3δ SyncroPatch automated patch clamp assay; type: cell-based; conditions: for EC50: HEK cells, potentiation of submaximal GABA current, clamped at −120 mV; for α4β3δ EMAX: peak current after GABA+compound divided by peak current after GABA alone
Chain of human GABAA receptors composed of the α4β3δ subunits (P48169 36-554 limits assumed): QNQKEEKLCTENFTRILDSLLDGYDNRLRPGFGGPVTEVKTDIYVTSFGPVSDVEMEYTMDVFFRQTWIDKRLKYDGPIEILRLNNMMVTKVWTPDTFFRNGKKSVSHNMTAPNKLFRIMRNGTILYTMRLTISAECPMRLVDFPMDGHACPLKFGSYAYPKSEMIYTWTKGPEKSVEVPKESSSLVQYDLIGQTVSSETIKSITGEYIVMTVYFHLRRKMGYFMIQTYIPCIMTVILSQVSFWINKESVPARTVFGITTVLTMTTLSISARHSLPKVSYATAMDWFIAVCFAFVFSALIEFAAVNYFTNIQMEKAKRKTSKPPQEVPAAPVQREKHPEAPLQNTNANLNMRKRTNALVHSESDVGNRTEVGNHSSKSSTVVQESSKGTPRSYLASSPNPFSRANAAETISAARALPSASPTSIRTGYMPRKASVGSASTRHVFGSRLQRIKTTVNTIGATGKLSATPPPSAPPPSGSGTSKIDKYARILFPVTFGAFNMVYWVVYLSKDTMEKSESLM
Chain of human GABAA receptors composed of the α4β3δ subunits (P28472 26-473 limits assumed): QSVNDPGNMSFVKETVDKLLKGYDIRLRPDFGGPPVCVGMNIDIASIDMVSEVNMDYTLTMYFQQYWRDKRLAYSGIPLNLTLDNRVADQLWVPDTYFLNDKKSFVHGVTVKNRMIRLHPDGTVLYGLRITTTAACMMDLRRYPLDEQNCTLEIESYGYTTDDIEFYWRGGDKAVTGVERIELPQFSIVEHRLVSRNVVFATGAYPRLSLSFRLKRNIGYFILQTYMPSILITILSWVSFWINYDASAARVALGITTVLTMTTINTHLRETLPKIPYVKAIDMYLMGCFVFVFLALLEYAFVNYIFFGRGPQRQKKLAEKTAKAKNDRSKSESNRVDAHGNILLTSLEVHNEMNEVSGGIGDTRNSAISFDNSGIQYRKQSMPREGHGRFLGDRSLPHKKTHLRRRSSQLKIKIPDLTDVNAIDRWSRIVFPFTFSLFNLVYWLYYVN
Chain of human GABAA receptors composed of the α4β3δ subunits (O14764 17-452 limits assumed): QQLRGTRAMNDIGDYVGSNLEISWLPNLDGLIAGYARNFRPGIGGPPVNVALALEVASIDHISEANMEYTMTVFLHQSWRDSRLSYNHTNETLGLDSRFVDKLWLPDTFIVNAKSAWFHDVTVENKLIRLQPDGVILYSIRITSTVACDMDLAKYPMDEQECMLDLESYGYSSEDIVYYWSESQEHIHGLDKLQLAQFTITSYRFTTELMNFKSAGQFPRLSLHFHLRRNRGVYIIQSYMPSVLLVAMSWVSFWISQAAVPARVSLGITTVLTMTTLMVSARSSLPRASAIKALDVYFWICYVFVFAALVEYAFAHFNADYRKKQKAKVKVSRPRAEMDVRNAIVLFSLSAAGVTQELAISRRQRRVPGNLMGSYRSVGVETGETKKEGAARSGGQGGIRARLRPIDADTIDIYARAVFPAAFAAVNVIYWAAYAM
Summary of the method: as §1

| Structure (SMILES) | IC50 [1] | EC50 [2] | α1β2γ2 EMAX [2] | EC50 [3] | α4β3δ EMAX [3] |
| --- | --- | --- | --- | --- | --- |
| CCOC[C@@]1(O)CC[C@H]2[C@H](CC[C@@H]3[C@@H]2CC[C@]2(C)[C@@H]([C@H](Cn4cc(C#N)cn4)C(F)(F)F)CC[C@@H]32)C1 [Example 357, 1-((R)-2-((3R,5R,8R,9R,10S,13S,14S,17R)-3-(ethoxymethyl)-3-hydroxy-13-methylhexadecahydro-1H-cyclopenta[a]phenanthren-17-yl)-3,3,3-trifluoropropyl)-1H-pyrazole-4-carbonitrile] | 100 to 1000 nM | 200 to 1000 nM | B (B indicates an Emax response 8 to <10) | 200 to 1000 nM | B (B indicates an Emax response 30 to <45) |
| CCC[C@@]1(O)CC[C@H]2[C@H](CC[C@@H]3[C@@H]2CC[C@]2(C)[C@@H]([C@@H](C)Cn4cc(C#N)cn4)CC[C@@H]32)C1 [Example 65, 1-((R)-2-((3R,5R,8R,9R,10S,13S,14S,17R)-3-hydroxy-13-methyl-3-propylhexadecahydro-1H-cyclopenta[a]phenanthren-17-yl)propyl)-1H-pyrazole-4-carbonitrile] | < 100 nM | ≥ 1000 nM | A (A indicates an Emax response <8) | < 200 nM | B (B indicates an Emax response 30 to <45) |
| CCOC[C@@]1(O)CC[C@H]2[C@H](CC[C@@H]3[C@@H]2CC[C@]2(C)[C@@H]([C@@H](C)Nc4cccc(N5CCCC5=O)n4)CC[C@@H]32)C1 [Example 263] | < 100 nM | 200 to 1000 nM | A (A indicates an Emax response <8) | 200 to 1000 nM | A (A indicates an Emax response <30) |
| COC[C@@]1(O)CC[C@H]2[C@H](CC[C@@H]3[C@@H]2CC[C@]2(C)[C@@H]([C@@H](C)Nc4ccc(C#N)cn4)CC[C@@H]32)C1 [Example 41, 6-(((R)-1-((3R,5R,8R,9R,10S,13S,14S,17S)-3-hydroxy-3-(methoxymethyl)-13-methylhexadecahydro-1H-cyclopenta[a]phenanthren-17-yl)ethyl)amino)nicotinonitrile] | 100 to 1000 nM | ≥ 1000 nM | A (A indicates an Emax response <8) | ≥ 1000 nM | B (B indicates an Emax response 30 to <45) |
| CCOC[C@@]1(O)CC[C@@]2(C)[C@H](CC[C@@H]3[C@@H]2CC[C@]2(C)[C@@H]([C@H](C)Cn4ccc(C#N)n4)CC[C@@H]32)C1 [Example 278, 1-((S)-2-((3R,5R,8R,9S,10S,13S,14S,17R)-3-(ethoxymethyl)-3-hydroxy-10,13-dimethylhexadecahydro-1H-cyclopenta[a]phenanthren-17-yl)propyl)-1H-pyrazole-3-carbonitrile] | < 100 nM | < 200 nM | A (A indicates an Emax response <8) | < 200 nM | A (A indicates an Emax response <30) |
| CCCC[C@@]1(O)CC[C@H]2[C@H](CC[C@@H]3[C@@H]2CC[C@]2(C)[C@@H]([C@@H](C)Cn4cc(C#N)cn4)CC[C@@H]32)C1 [Example 311, 1-((R)-2-((3R,5R,8R,9R,10S,13S,14S,17R)-3-butyl-3-hydroxy-13-methylhexadecahydro-1H-cyclopenta[a]phenanthren-17-yl)propyl)-1H-pyrazole-4-carbonitrile] | < 100 nM | < 200 nM | C (C indicates an Emax response ≥10) | 200 to 1000 nM | B (B indicates an Emax response 30 to <45) |
| CC[C@@]1(O)CC[C@H]2[C@H](CC[C@@H]3[C@@H]2CC[C@]2(C)[C@@H]([C@@H](C)Cn4ccc(C#N)n4)CC[C@@H]32)C1 [Example 272, 1-((R)-2-((3R,5R,8R,9R,10S,13S,14S,17R)-3-ethyl-3-hydroxy-13-methylhexadecahydro-1H-cyclopenta[a]phenanthren-17-yl)propyl)-1H-pyrazole-3-carbonitrile] | < 100 nM | < 200 nM | C (C indicates an Emax response ≥10) | < 200 nM | A (A indicates an Emax response <30) |
| CCOC[C@@]1(O)CC[C@H]2[C@H](CC[C@@H]3[C@@H]2CC[C@]2(C)[C@@H]([C@@H](C)NC(=O)c4ccc(F)cc4F)CC[C@@H]32)C1 [Example 132] | < 100 nM | ≥ 1000 nM | C (C indicates an Emax response ≥10) | ≥ 1000 nM | B (B indicates an Emax response 30 to <45) |
| CCC[C@@]1(O)CC[C@H]2[C@H](CC[C@@H]3[C@@H]2CC[C@]2(C)[C@@H]([C@@H](C)Cc4ccc(C#N)nc4)CC[C@@H]32)C1 [Example 401, 5-((S)-2-((3R,5R,8R,9R,10S,13R,14S,17R)-3-hydroxy-13-methyl-3-propylhexadecahydro-1H-cyclopenta[a]phenanthren-17-yl)propyl)picolinonitrile] | < 100 nM | ≥ 1000 nM | C (C indicates an Emax response ≥10) | ≥ 1000 nM | A (A indicates an Emax response <30) |
| CCC[C@@]1(O)CC[C@@]2(COC)[C@H](CC[C@H]3[C@@H]4CC[C@H]([C@H](C)Cn5nnc(C)n5)[C@@]4(C)CC[C@@H]32)C1 [Example 320, (3R,5R,8S,9S,10R,13S,14S,17R)-10-(methoxymethyl)-13-methyl-17-((S)-1-(5-methyl-2H-tetrazol-2-yl)propan-2-yl)-3-propylhexadecahydro-1H-cyclopenta[a]phenanthren-3-ol] | < 100 nM | 200 to 1000 nM | B (B indicates an Emax response 8 to <10) | 200 to 1000 nM | C (C indicates an Emax response ≥45) |
| CCOC[C@@]1(O)CC[C@H]2[C@H](CC[C@@H]3[C@@H]2CC[C@]2(C)[C@@H]([C@H](Cn4nnc(C)n4)C(F)(F)F)CC[C@@H]32)C1 [Example 358, (3R,5R,8R,9R,10S,13S,14S,17R)-3-(ethoxymethyl)-13-methyl-17-((R)-1,1,1-trifluoro-3-(5-methyl-2H-tetrazol-2-yl)propan-2-yl)hexadecahydro-1H-cyclopenta[a]phenanthren-3-ol] | 100 to 1000 nM | ≥ 1000 nM | A (A indicates an Emax response <8) | ≥ 1000 nM | B (B indicates an Emax response 30 to <45) |
| C[C@@H](Cc1ccc(C(F)(F)F)nc1)[C@H]1CC[C@H]2[C@@H]3CC[C@@H]4C[C@](C)(O)CC[C@@H]4[C@H]3CC[C@]12C [Example 443] | < 100 nM | < 200 nM | C (C indicates an Emax response ≥10) | < 200 nM | B (B indicates an Emax response 30 to <45) |
| COC[C@@]1(O)CC[C@H]2[C@@H](CC[C@@H]3[C@@H]2CC[C@]2(C)[C@@H]([C@@H](C)Cn4nnc(C)n4)CC[C@@H]32)C1 [Example 53, (3R,5S,8R,9R,10S,13S,14S,17R)-3-(methoxymethyl)-13-methyl-17-((R)-1-(5-methyl-2H-tetrazol-2-yl)propan-2-yl)hexadecahydro-1H-cyclopenta[a]phenanthren-3-ol] | 100 to 1000 nM | ≥ 1000 nM | A (A indicates an Emax response <8) | ≥ 1000 nM | A (A indicates an Emax response <30) |
| CC[C@@]1(O)CC[C@H]2[C@H](CC[C@@H]3[C@@H]2CC[C@]2(C)[C@@H]([C@H](C)Cn4cc(C#N)cn4)CC[C@@H]32)C1 [Example 276, 1-((S)-2-((3R,5R,8R,9R,10S,13S,14S,17R)-3-ethyl-3-hydroxy-13-methylhexadecahydro-1H-cyclopenta[a]phenanthren-17-yl)propyl)-1H-pyrazole-4-carbonitrile] | < 100 nM | 200 to 1000 nM | B (B indicates an Emax response 8 to <10) | < 200 nM | A (A indicates an Emax response <30) |
| CCOC[C@@]1(O)CC[C@H]2[C@H](CC[C@@H]3[C@@H]2CC[C@]2(C)[C@@H]([C@H](C)Cn4nccc4C#N)CC[C@@H]32)C1 [Example 286, 1-((S)-2-((3R,5R,8R,9R,10S,13S,14S,17R)-3-(ethoxymethyl)-3-hydroxy-13-methylhexadecahydro-1H-cyclopenta[a]phenanthren-17-yl)propyl)-1H-pyrazole-5-carbonitrile] | < 100 nM | < 200 nM | B (B indicates an Emax response 8 to <10) | 200 to 1000 nM | A (A indicates an Emax response <30) |
| CCOC[C@@]1(O)CC[C@H]2[C@H](CC[C@@H]3[C@@H]2CC[C@]2(C)[C@@H]([C@@H](C)Cc4cccc(C#N)n4)CC[C@@H]32)C1 [Example 413] | < 100 nM | < 200 nM | C (C indicates an Emax response ≥10) | < 200 nM | B (B indicates an Emax response 30 to <45) |
